# In patent US20220279826A1, “OFF-FLAVOR SUPPRESSING AGENT” (AJINOMOTO CO., INC., priority 2019, published 2022):
# What was measured:
# [1] = Sensory evaluation of off-taste suppressing effect in 0.8 wt % potassium chloride aqueous solution (Experimental Examples 1 and 2); conditions: for off-taste suppressing effect: 0.8 wt % potassium chloride aqueous solution; for intensity of off-tastes (bitter taste, metallic taste, harsh taste, astringent taste) derived from potassium chloride: potassium chloride aqueous solutions, Tables 1 to 14
# Experimental: Each compound shown in the following Tables 1 to 13 was added to a 0.8 wt % potassium chloride aqueous solution at the concentration (addition concentration) shown in the following Tables 1 to 13 to prepare each evaluation sample.
# Based on the following evaluation criteria, a panel of two experts determined by consensus the intensity of off-tastes (bitter taste, metallic taste, harsh taste, astringent taste) derived from potassium chloride in each evaluation sample, by reference to each potassium chloride aqueous solution adjusted to 0.8 wt %, 0.75 wt %, 0.7 wt %, or 0.65 wt %.
# −: intensity of the same level as potassium chloride aqueous solution with potassium chloride concentration of not less than 0.8 wt %
# +: intensity of the same level as potassium chloride aqueous solution with potassium chloride concentration of not less than 0.75 wt % and less than 0.8 wt %
# ++: intensity of the same level as potassium chloride aqueous solution with potassium chloride concentration of not less than 0.7 wt % and less than 0.75 wt %
# +++: intensity of the same level as potassium chloride aqueous solution with potassium chloride concentration of not less than 0.65 wt % and less than 0.7 wt %
# Each compound shown in the following Table 14 was added to a 0.8 wt % potassium chloride aqueous solution at the concentration (addition concentration) shown in the following Table 14 to prepare each evaluation sample.
# [2] = Sensory evaluation in ramen noodle soup solution with potassium chloride (Experimental Example 3); conditions: for off-taste suppressing effect: Ramen noodle soup solution with 0.8 wt % potassium chloride; for intensity of off-tastes (bitter taste, metallic taste, harsh taste, astringent taste) derived from potassium chloride: base solutions of Tables 15 to 17 (ramen noodle soup, chicken broth, potage)
# Experimental: (§1) As shown in the following (1) to (3) below, 0.8 wt % of potassium chloride was added to a food base powder corresponding to 0.5 wt % of sodium chloride to prepare each base solution having an off-taste derived from potassium chloride.
# Potassium chloride (0.8 g) was added to a soup powder (1.1 g) of a commercially available instant ramen noodle (manufactured by SANYO FOODS Co., Ltd., trade name “Sapporo Ichiban Shouyuaji”), hot water (98.1 g) was added to dissolve the mixture to prepare a base solution (ramen noodle soup solution).
# (§2) Each compound shown in the following Tables 15 to 17 was added to each base solution (ramen noodle soup solution, chicken broth solution, potage solution) so as to achieve the concentration (addition concentration) shown in the following Tables 15 to 17 to prepare each evaluation sample.
# (§3) By a method similar to that in Experimental Example 1, a panel of two experts determined the intensity of off-tastes (bitter taste, metallic taste, harsh taste, astringent taste) derived from potassium chloride in each evaluation sample.
# [3] = Sensory evaluation in chicken broth solution with potassium chloride (Experimental Example 3); conditions: chicken broth solution with 0.8 wt % potassium chloride
# Experimental: as §1
# Potassium chloride (0.8 g) was added to a commercially available powdered chicken broth mix (manufactured by Ajinomoto Co., Inc., trade name “Marutorigara Soup”) (1.0 g), hot water (98.2 g) was added to dissolve the mixture to prepare a base solution (chicken broth soup solution).
# as §2, §3
# [4] = Sensory evaluation in potage solution with potassium chloride (Experimental Example 3); conditions: Potage solution with 0.8 wt % potassium chloride
# Experimental: as §1
# Potassium chloride (0.8 g) was added to a commercially available powdered instant potage (manufactured by Ajinomoto Co., Inc., trade name “Knorr (registered trade mark) Cup Soup Potage”) (7.1 g), hot water (92.1 g) was added to dissolve the mixture to prepare a base solution (potage solution).
# as §2, §3
# [5] = addition concentration 1 weight ppb (0.125 weight ppm with respect to potassium chloride)
# [6] = addition concentration 5 weight ppb (0.625 weight ppm with respect to potassium chloride)
# [7] = addition concentration 10 weight ppb (1.25 weight ppm with respect to potassium chloride)
# [8] = addition concentration 50 weight ppb (6.25 weight ppm with respect to potassium chloride)
# [9] = addition concentration 100 weight ppb (12.5 weight ppm with respect to potassium chloride)
# [10] = addition concentration 500 weight ppb (62.5 weight ppm with respect to potassium chloride)
# [11] = addition concentration 10 ppb (1.25 weight ppm with respect to potassium chloride)
# [12] = addition concentration 100 ppb (12.5 weight ppm with respect to potassium chloride)
SMILES,"off-taste suppressing effect [1, 5]","off-taste suppressing effect [1, 6]","off-taste suppressing effect [1, 7]","off-taste suppressing effect [1, 8]","off-taste suppressing effect [1, 9]","off-taste suppressing effect [1, 10]",off-taste suppressing effect ([1]; addition concentration 1000 weight ppb (125 weight ppm with respect to potassium chloride)),"intensity of off-tastes (bitter taste, metallic taste, harsh taste, astringent taste) derived from potassium chloride [1]","off-taste suppressing effect [2, 11]","intensity of off-tastes (bitter taste, metallic taste, harsh taste, astringent taste) derived from potassium chloride [2]","off-taste suppressing effect [3, 11]","off-taste suppressing effect [4, 11]","off-taste suppressing effect [2, 12]","off-taste suppressing effect [3, 12]","off-taste suppressing effect [4, 12]"
"CC1=C(O)C(=O)OC1C (stereo not drawn) [4,5-dimethyl-3-hydroxy-2(5H)-furanone]",+ (intensity of the same level as potassium chloride aqueous solution with potassium chloride concentration of not less than 0.75 wt % and less than 0.8 wt %),++ (intensity of the same level as potassium chloride aqueous solution with potassium chloride concentration of not less than 0.7 wt % and less than 0.75 wt %),++ (intensity of the same level as potassium chloride aqueous solution with potassium chloride concentration of not less than 0.7 wt % and less than 0.75 wt %),+ (intensity of the same level as potassium chloride aqueous solution with potassium chloride concentration of not less than 0.75 wt % and less than 0.8 wt %),+ (intensity of the same level as potassium chloride aqueous solution with potassium chloride concentration of not less than 0.75 wt % and less than 0.8 wt %),+ (intensity of the same level as potassium chloride aqueous solution with potassium chloride concentration of not less than 0.75 wt % and less than 0.8 wt %),+ (intensity of the same level as potassium chloride aqueous solution with potassium chloride concentration of not less than 0.75 wt % and less than 0.8 wt %),decreased,++ (intensity of the same level as potassium chloride aqueous solution with potassium chloride concentration of not less than 0.7 wt % and less than 0.75 wt %),decreased,++ (intensity of the same level as potassium chloride aqueous solution with potassium chloride concentration of not less than 0.7 wt % and less than 0.75 wt %),++ (intensity of the same level as potassium chloride aqueous solution with potassium chloride concentration of not less than 0.7 wt % and less than 0.75 wt %),,,
"CC1=C(O)C(=O)C(C)O1 (stereo not drawn) [4-hydroxy-2,5-dimethyl-3(2H)-furanone]",+ (intensity of the same level as potassium chloride aqueous solution with potassium chloride concentration of not less than 0.75 wt % and less than 0.8 wt %),+ (intensity of the same level as potassium chloride aqueous solution with potassium chloride concentration of not less than 0.75 wt % and less than 0.8 wt %),++ (intensity of the same level as potassium chloride aqueous solution with potassium chloride concentration of not less than 0.7 wt % and less than 0.75 wt %),++ (intensity of the same level as potassium chloride aqueous solution with potassium chloride concentration of not less than 0.7 wt % and less than 0.75 wt %),++ (intensity of the same level as potassium chloride aqueous solution with potassium chloride concentration of not less than 0.7 wt % and less than 0.75 wt %),,,decreased,++ (intensity of the same level as potassium chloride aqueous solution with potassium chloride concentration of not less than 0.7 wt % and less than 0.75 wt %),decreased,++ (intensity of the same level as potassium chloride aqueous solution with potassium chloride concentration of not less than 0.7 wt % and less than 0.75 wt %),++ (intensity of the same level as potassium chloride aqueous solution with potassium chloride concentration of not less than 0.7 wt % and less than 0.75 wt %),,,
CC1=C(O)C(=O)CO1 [4-hydroxy-5-methyl-3(2H)-furanone],+ (intensity of the same level as potassium chloride aqueous solution with potassium chloride concentration of not less than 0.75 wt % and less than 0.8 wt %),+ (intensity of the same level as potassium chloride aqueous solution with potassium chloride concentration of not less than 0.75 wt % and less than 0.8 wt %),+ (intensity of the same level as potassium chloride aqueous solution with potassium chloride concentration of not less than 0.75 wt % and less than 0.8 wt %),++ (intensity of the same level as potassium chloride aqueous solution with potassium chloride concentration of not less than 0.7 wt % and less than 0.75 wt %),++ (intensity of the same level as potassium chloride aqueous solution with potassium chloride concentration of not less than 0.7 wt % and less than 0.75 wt %),+ (intensity of the same level as potassium chloride aqueous solution with potassium chloride concentration of not less than 0.75 wt % and less than 0.8 wt %),,decreased,,decreased,,,++ (intensity of the same level as potassium chloride aqueous solution with potassium chloride concentration of not less than 0.7 wt % and less than 0.75 wt %),++ (intensity of the same level as potassium chloride aqueous solution with potassium chloride concentration of not less than 0.7 wt % and less than 0.75 wt %),++ (intensity of the same level as potassium chloride aqueous solution with potassium chloride concentration of not less than 0.7 wt % and less than 0.75 wt %)
